Laboratory results from patent US6350585B1, “Reagent for assay of amylase isozyme activity” (priority 1998, dated 2002).

How the values were obtained:
S-type amylase = molecular target: T1, S-type amylase (Homo sapiens, UniProt P0DUB6); assay: S-type amylase activity assay of serum by subtraction (reagent F minus reagent G); assay type: biochemical; conditions: for S-type amylase activity value: change in absorbance with reagent F minus reagent G
T1 construct: Serum (1, 2 or 3); from tissue; host or cells: serum
T1 sequence (P0DUB6 16-511): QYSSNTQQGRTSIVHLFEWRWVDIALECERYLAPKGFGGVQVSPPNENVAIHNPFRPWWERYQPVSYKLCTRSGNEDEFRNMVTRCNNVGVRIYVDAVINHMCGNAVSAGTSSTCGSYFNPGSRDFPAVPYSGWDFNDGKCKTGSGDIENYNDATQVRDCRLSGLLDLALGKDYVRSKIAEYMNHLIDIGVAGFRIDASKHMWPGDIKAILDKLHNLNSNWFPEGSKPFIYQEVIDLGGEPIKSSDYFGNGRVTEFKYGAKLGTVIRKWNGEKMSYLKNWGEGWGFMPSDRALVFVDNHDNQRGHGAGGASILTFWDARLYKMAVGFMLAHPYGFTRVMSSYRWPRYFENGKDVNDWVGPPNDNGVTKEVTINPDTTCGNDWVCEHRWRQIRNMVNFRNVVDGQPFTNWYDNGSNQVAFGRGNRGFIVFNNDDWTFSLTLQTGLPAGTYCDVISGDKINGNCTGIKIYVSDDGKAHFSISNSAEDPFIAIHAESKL
Protocol: Potassium thiocyanate 140 mM
(§1) Substrate (GalG2CNP (Example) or G3CNP (Comparative Example)) 2.6 mM
S-type amylase inhibitory antibody 88E8 (manufactured by Roche Diagnostics K.K.) 15 mg/L
S-type amylase inhibitory antibody 66C7 (manufactured by Roche Diagnostics K.K.) 1.25 mg/L
(1) Distilled Water(Blank)
Each of the above-mentioned reagents (0.05 mL) was added to the above reagent F (3 mL) and the mixtures were left standing at 37° C. for 3 minutes. Then, change in absorbance at 405 nm was assayed and change in absorbance per minute was calculated (change in absorbance a). The same procedure was repeated using reagent G and change in absorbance per minute was calculated (change in absorbance b). Then, change in absorbance b was subtracted from change in absorbance a to give change in absorbance c, which was converted to S-type amylase activity value at this composition using the molecular extinction coefficient of CNP.

[1] = molecular target: T2, P-type amylase (Calibzyme P) (Homo sapiens, UniProt P04746); assay: amylase isozyme activity assay with potassium thiocyanate as activator, P-type amylase sample; assay type: biochemical; conditions: for Change in absorbance, Containing Antibody (Composition A) / Change in absorbance, Without antibody (Composition B) / Relative sensitivity / Percent residual enzyme activity: P-type amylase; for Relative sensitivity: G3CNP at 900 mM = 100; for Percent residual enzyme activity: composition A/B
T2 construct: purchased International Reagents Corporation Calibzyme P
T2 sequence (P04746 16-511): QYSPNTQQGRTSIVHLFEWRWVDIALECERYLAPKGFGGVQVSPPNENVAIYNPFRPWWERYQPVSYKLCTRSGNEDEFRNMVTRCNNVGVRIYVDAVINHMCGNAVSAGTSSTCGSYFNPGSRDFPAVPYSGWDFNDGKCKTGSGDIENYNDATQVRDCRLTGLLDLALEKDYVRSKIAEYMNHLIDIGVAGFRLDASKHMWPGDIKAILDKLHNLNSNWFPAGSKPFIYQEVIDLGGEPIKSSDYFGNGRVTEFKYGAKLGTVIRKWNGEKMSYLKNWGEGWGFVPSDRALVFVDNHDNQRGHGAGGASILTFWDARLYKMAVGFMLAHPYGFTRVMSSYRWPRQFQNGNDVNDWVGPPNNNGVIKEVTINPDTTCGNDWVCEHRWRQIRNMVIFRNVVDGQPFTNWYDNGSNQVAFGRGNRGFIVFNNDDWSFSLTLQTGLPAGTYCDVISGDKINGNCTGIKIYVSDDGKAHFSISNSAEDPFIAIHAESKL
Protocol: A reagent for amylase isozyme activity assay comprising each composition as mentioned below was prepared. In the Table showing the composition, GalG2CNP (Example) is 2-chloro-4-nitrophenyl 4-O-β-D-galactopyranosylmaltoside, and G3CNP (Comparative Example) is 2-chloro-4-nitrophenylmaltotrioside.
S-type amylase-inhibiting antibody 88E8 (manufactured by Roche Diagnostics K.K.) 20 mg/L
S-type amylase-inhibiting antibody 66C7 (manufactured by Roche Diagnostics K.K.) 5 mg/L
as §1
(2) P-type Amylase (Calibzyme P, Manufactured by International Reagents Corporation)
Each sample (0.05 mL was added to the reagent A (3 mL) and the reagent B (3 mL), respectively, and the mixtures were allowed to stand at 37° C. for 3 minutes. Then, the change in absorbance at 405 nm was assayed, and the change in absorbance per minute was calculated. The results are shown in Tables 1 and 2.
In the Tables, P is the case where P-type amylase was used as the sample, and S is the case where S-type amylase was used.
Percent residual enzyme activity (%)=(change in absorbance of composition A)/(change in absorbance of composition B)×100
Relative sensitivity (%)=(change in absorbance of composition B)/(change in absorbance of Comparative Example wherein potassium thiocyanate was 900 mM)×100

## O=[N+]([O-])c1ccc(O[C@H]2O[C@H](CO)[C@@H](O[C@H]3O[C@H](CO)[C@@H](O[C@@H]4O[C@H](CO)[C@H](O)[C@H](O)[C@H]4O)[C@H](O)[C@H]3O)[C@H](O)[C@H]2O)c(Cl)c1 [GalG2CNP, 2-chloro-4-nitrophenyl 4-O-β-D-galactopyranosylmaltoside]
S-type amylase; Serum 1
  S-type amylase activity value: 44.8 IU/L
S-type amylase; Serum 2
  S-type amylase activity value: 167.7 IU/L
S-type amylase; Serum 3
  S-type amylase activity value: 140.7 IU/L
S-type amylase; Table 6, serum samples
  sensitivity (change in absorbance) compared with Comparative Example: superior sensitivity
S-type amylase; distilled water as sample, compositions F and G
  Blank, change in absorbance per minute: 0.0003 ABS/min
[1]; potassium thiocyanate 0 mM
  Change in absorbance, Containing Antibody (Composition A): 26.2 mABS/min
  Change in absorbance, Without antibody (Composition B): 26.7 mABS/min
  Relative sensitivity: 55.7%
  Percent residual enzyme activity: 98.1%
[1]; potassium thiocyanate 50 mM
  Change in absorbance, Containing Antibody (Composition A): 40.6 mABS/min
  Change in absorbance, Without antibody (Composition B): 42.1 mABS/min
  Relative sensitivity: 87.9%
  Percent residual enzyme activity: 96.4%
[1]; potassium thiocyanate 100 mM
  Change in absorbance, Containing Antibody (Composition A): 49.3 mABS/min
  Change in absorbance, Without antibody (Composition B): 51.1 mABS/min
  Relative sensitivity: 106.7%
  Percent residual enzyme activity: 96.5%
[1]; potassium thiocyanate 140 mM
  Change in absorbance, Containing Antibody (Composition A): 52.4 mABS/min
  Change in absorbance, Without antibody (Composition B): 56.0 mABS/min
  Relative sensitivity: 116.9%
  Percent residual enzyme activity: 93.6%
[1]; potassium thiocyanate 200 mM
  Change in absorbance, Containing Antibody (Composition A): 59.5 mABS/min
  Change in absorbance, Without antibody (Composition B): 61.9 mABS/min
  Relative sensitivity: 129.2%
  Percent residual enzyme activity: 96.1%
[1]; potassium thiocyanate 300 mM
  Change in absorbance, Containing Antibody (Composition A): 66.6 mABS/min
  Change in absorbance, Without antibody (Composition B): 69.1 mABS/min
  Relative sensitivity: 144.3%
  Percent residual enzyme activity: 96.4%
[1]; potassium thiocyanate 400 mM
  Change in absorbance, Containing Antibody (Composition A): 70.3 mABS/min
  Change in absorbance, Without antibody (Composition B): 71.7 mABS/min
  Relative sensitivity: 149.7%
  Percent residual enzyme activity: 98.0%
[1]; potassium thiocyanate 500 mM
  Change in absorbance, Containing Antibody (Composition A): 71.3 mABS/min
  Change in absorbance, Without antibody (Composition B): 70.9 mABS/min
  Relative sensitivity: 148.0%
  Percent residual enzyme activity: 100.6%
[1]; potassium thiocyanate 600 mM
  Change in absorbance, Containing Antibody (Composition A): 70.4 mABS/min
  Change in absorbance, Without antibody (Composition B): 68.0 mABS/min
  Relative sensitivity: 142.0%
  Percent residual enzyme activity: 103.5%
[1]; potassium thiocyanate 700 mM
  Change in absorbance, Containing Antibody (Composition A): 67.9 mABS/min
  Change in absorbance, Without antibody (Composition B): 67.2 mABS/min
  Relative sensitivity: 140.3%
  Percent residual enzyme activity: 101.0%
[1]; potassium thiocyanate 800 mM
  Change in absorbance, Containing Antibody (Composition A): 63.7 mABS/min
  Change in absorbance, Without antibody (Composition B): 62.6 mABS/min
  Relative sensitivity: 130.7%
  Percent residual enzyme activity: 101.8%
[1]; potassium thiocyanate 900 mM
  Change in absorbance, Containing Antibody (Composition A): 61.6 mABS/min
  Change in absorbance, Without antibody (Composition B): 60.1 mABS/min
  Relative sensitivity: 125.5%
  Percent residual enzyme activity: 102.5%
[1]; potassium thiocyanate 200 mM, standard = G3CNP at 900 mM
  relative sensitivity of P-type amylase as multiple of the standard sensitivity: about 1.3
